Reference: patent US9302999B2, “Substituted triazoles as herbicides” (E. I. DU PONT DE NEMOURS AND COMPANY, priority 2012, dated 2016)

Key:
Format in all cases: in vivo
corn (Zea mays) = test: Test A pre-/postemergence: corn; conditions: for Corn plant response rating: Postemergence; for Plant response rating, Corn: Preemergence
Summary of the method: (§1)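 Compounds, formulated with surfactant in non-phytotoxic solvent, were applied as a directed soil spray preemergence and as postemergence sprays to 2–10 cm, one- to two-leaf seedlings grown in loam soil blended with sand; visual injury, 0–100, assessed ~10 days post-treatment against untreated controls.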

[1] = tested on: morningglory (Ipomoea spp.); test: Test A pre-/postemergence: morningglory; conditions: for Morningglory plant response rating: Postemergence; for Plant response rating, Morningglory: Preemergence
Summary of the method: as §1

[2] = tested on: pigweed (Amaranthus retroflexus); test: Test A pre-/postemergence: pigweed; conditions: for Pigweed plant response rating: Postemergence; for Plant response rating, Pigweed: Preemergence
Summary of the method: as §1

[3] = tested on: foxtail, giant (giant foxtail, Setaria faberii); test: Test A pre-/postemergence: foxtail, giant; conditions: for Foxtail, Giant plant response rating: Postemergence; for Plant response rating, Foxtail, Giant: Preemergence
Summary of the method: as §1

[4] = tested on: ducksalad (Heteranthera limosa); test: Test C flooded paddy test: ducksalad; conditions: scale 0 to 100 (0 no effect, 100 complete control)
Summary of the method: (§2)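 2-leaf stage plants; pots flooded 3 cm above soil; compound applied into paddy water, depth maintained. Greenhouse 13–15 d. Visual rating vs controls, 0–100 (0 = no effect, 100 = complete control); dash = no result.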

[5] = tested on: barnyardgrass (Echinochloa crus-galli); test: Test A pre-/postemergence: barnyardgrass; conditions: for Barnyardgrass plant response rating: Postemergence; for Plant response rating, Barnyardgrass: Preemergence
Summary of the method: as §1

[6] = tested on: velvetleaf (Abutilon theophrasti); test: Test A pre-/postemergence: velvetleaf; conditions: for Velvetleaf plant response rating: Postemergence; for Plant response rating, Velvetleaf: Preemergence
Summary of the method: as §1

[7] = tested on: sedge, umbrella (small-flower umbrella sedge, Cyperus difformis); test: Test C flooded paddy test: sedge, umbrella; conditions: scale 0 to 100 (0 no effect, 100 complete control)
Summary of the method: as §2

[8] = tested on: crabgrass, large (large crabgrass, Digitaria sanguinalis); test: Test A pre-/postemergence: crabgrass, large; conditions: for Crabgrass, Large plant response rating: Postemergence; for Plant response rating, Crabgrass, Large: Preemergence
Summary of the method: as §1

rice (Oryza sativa) = test: Test C flooded paddy test: rice; conditions: scale 0 to 100 (0 no effect, 100 complete control)
Summary of the method: as §2

[9] = tested on: wheat (Triticum aestivum); test: Test A pre-/postemergence: wheat; conditions: for Wheat plant response rating: Postemergence; for Plant response rating, Wheat: Preemergence
Summary of the method: as §1

[10] = tested on: barnyardgrass (Echinochloa crus-galli); test: Test C flooded paddy test: barnyardgrass; conditions: scale 0 to 100 (0 no effect, 100 complete control)
Summary of the method: as §2

[11] = 125 g ai/ha, 0 to 100 scale, 0 is no effect, 100 is complete control
[12] = 500 g ai/ha, visual rating on 0 to 100 scale (0 no effect, 100 complete control), approximately ten days
[13] = 125 g ai/ha, 0 to 100 scale (0 no effect, 100 complete control)
[14] = 500 g ai/ha, 0 to 100 scale, 0 is no effect, 100 is complete control
[15] = Flood (flooded paddy test), 62 g ai/ha, visual rating after 13 to 15 days
[16] = Flood (flooded paddy test), 125 g ai/ha, visual rating after 13 to 15 days
[17] = Flood (flooded paddy test), 250 g ai/ha, visual rating after 13 to 15 days

Cc1nn(-c2cccc(C(F)(F)F)c2)nc1Oc1cc(C(F)(F)F)nn1C [Compound 64]
Corn plant response rating (corn (Zea mays); [11]): 0 | Corn plant response rating (corn (Zea mays); [12]): 0 | Plant response rating, Corn (corn (Zea mays); [13]): 0 | Plant response rating, Corn (corn (Zea mays); [14]): 0 | Morningglory plant response rating [1, 11]: 0 | Morningglory plant response rating [1, 12]: 0 | Plant response rating, Morningglory [1, 13]: 0 | Plant response rating, Morningglory [1, 14]: 0 | Pigweed plant response rating [2, 11]: 0 | Pigweed plant response rating [2, 12]: 0 | Plant response rating, Pigweed [2, 13]: 0 | Plant response rating, Pigweed [2, 14]: 0 | Foxtail, Giant plant response rating [3, 11]: 0 | Foxtail, Giant plant response rating [3, 12]: 0 | Plant response rating, Foxtail, Giant [3, 13]: 0 | Plant response rating, Foxtail, Giant [3, 14]: 0 | Plant response rating, Ducksalad [4, 15]: 0 | Plant response rating, Ducksalad [4, 16]: 0 | Plant response rating, Ducksalad [4, 17]: 0 | Plant response rating, Ducksalad ([4]; Flood, 31 g ai/ha): 0 | Barnyardgrass plant response rating [5, 11]: 0 | Barnyardgrass plant response rating [5, 12]: 0 | Plant response rating, Barnyardgrass [5, 13]: 0 | Plant response rating, Barnyardgrass [5, 14]: 0 | Velvetleaf plant response rating [6, 11]: 0 | Velvetleaf plant response rating [6, 12]: 0 | Plant response rating, Velvetleaf [6, 13]: 0 | Plant response rating, Velvetleaf [6, 14]: 0 | Plant response rating, Sedge, Umbrella [7, 15]: 0 | Plant response rating, Sedge, Umbrella [7, 16]: 0 | Plant response rating, Sedge, Umbrella [7, 17]: 0 | Plant response rating, Sedge, Umbrella ([7]; Flood, 31 g ai/ha): 0 | Crabgrass, Large plant response rating [8, 11]: 0 | Crabgrass, Large plant response rating [8, 12]: 0 | Plant response rating, Crabgrass, Large [8, 13]: 0 | Plant response rating, Crabgrass, Large [8, 14]: 0 | Plant response rating, Rice (rice (Oryza sativa); [15]): 0 | Plant response rating, Rice (rice (Oryza sativa); [16]): 0 | Plant response rating, Rice (rice (Oryza sativa); [17]): 0 | Plant response rating, Rice (rice (Oryza sativa); Flood, 31 g ai/ha): 0 | Wheat plant response rating [9, 11]: 0 | Wheat plant response rating [9, 12]: 0 | Plant response rating, Wheat [9, 13]: 0 | Plant response rating, Wheat [9, 14]: 0 | Plant response rating, Barnyardgrass [10, 15]: 0 | Plant response rating, Barnyardgrass [10, 16]: 0 | Plant response rating, Barnyardgrass [10, 17]: 0 | Plant response rating, Barnyardgrass ([10]; Flood, 31 g ai/ha): 0

Cc1nn(-c2ccc(C(F)F)cn2)nc1C(=O)c1cccc(C(F)(F)F)c1 [Compound 68]
Corn plant response rating (corn (Zea mays); [11]): 0 | Corn plant response rating (corn (Zea mays); [12]): 10 | Plant response rating, Corn (corn (Zea mays); [13]): 0 | Plant response rating, Corn (corn (Zea mays); [14]): 0 | Morningglory plant response rating [1, 11]: 0 | Morningglory plant response rating [1, 12]: 10 | Plant response rating, Morningglory [1, 13]: 0 | Plant response rating, Morningglory [1, 14]: 0 | Pigweed plant response rating [2, 11]: 10 | Pigweed plant response rating [2, 12]: 50 | Plant response rating, Pigweed [2, 13]: 0 | Plant response rating, Pigweed [2, 14]: 0 | Foxtail, Giant plant response rating [3, 11]: 10 | Foxtail, Giant plant response rating [3, 12]: 10 | Plant response rating, Foxtail, Giant [3, 13]: 0 | Plant response rating, Foxtail, Giant [3, 14]: 0 | Plant response rating, Ducksalad [4, 15]: 0 | Plant response rating, Ducksalad [4, 16]: 0 | Plant response rating, Ducksalad [4, 17]: 0 | Plant response rating, Ducksalad ([4]; Flood, 31 g ai/ha): 0 | Barnyardgrass plant response rating [5, 11]: 0 | Barnyardgrass plant response rating [5, 12]: 10 | Plant response rating, Barnyardgrass [5, 13]: 0 | Plant response rating, Barnyardgrass [5, 14]: 0 | Velvetleaf plant response rating [6, 12]: 0 | Plant response rating, Velvetleaf [6, 13]: 0 | Plant response rating, Velvetleaf [6, 14]: 0 | Plant response rating, Sedge, Umbrella [7, 15]: 0 | Plant response rating, Sedge, Umbrella [7, 16]: 0 | Plant response rating, Sedge, Umbrella [7, 17]: 0 | Plant response rating, Sedge, Umbrella ([7]; Flood, 31 g ai/ha): 0 | Crabgrass, Large plant response rating [8, 11]: 10 | Crabgrass, Large plant response rating [8, 12]: 10 | Plant response rating, Crabgrass, Large [8, 13]: 0 | Plant response rating, Crabgrass, Large [8, 14]: 0 | Plant response rating, Rice (rice (Oryza sativa); [15]): 0 | Plant response rating, Rice (rice (Oryza sativa); [16]): 0 | Plant response rating, Rice (rice (Oryza sativa); [17]): 0 | Plant response rating, Rice (rice (Oryza sativa); Flood, 31 g ai/ha): 0 | Wheat plant response rating [9, 11]: 0 | Wheat plant response rating [9, 12]: 10 | Plant response rating, Wheat [9, 13]: 0 | Plant response rating, Wheat [9, 14]: 0 | Plant response rating, Barnyardgrass [10, 15]: 0 | Plant response rating, Barnyardgrass [10, 16]: 0 | Plant response rating, Barnyardgrass [10, 17]: 0 | Plant response rating, Barnyardgrass ([10]; Flood, 31 g ai/ha): 0
